Test results from paper PMC11879040, “Advancing systemic toxicity risk assessment: Evaluation of a NAM-based toolbox approach” (Toxicological Sciences, 2024).
Read-outs that look alike come from different tables or passages of the source.

Tests used:
[1] = test system: Sodium channel protein type 5 subunit alpha (site 2), SCN5A (r); format: binding, rat; conditions: IPP screening at 100 uM; control veratridine
Tubulin (r) = test: IPP Tubulin binding; set-up: species or system rat; conditions: 100 uM; ligand/control Colchicine
[2] = target: Potassium voltage-gated channel subfamily H member 2 hERG, KCNH2 (h) (Homo sapiens, UniProt Q12809); conditions: human, 100 µM
Sequence of Potassium voltage-gated channel subfamily H member 2 hERG, KCNH2 (h) (Q12809 whole entry): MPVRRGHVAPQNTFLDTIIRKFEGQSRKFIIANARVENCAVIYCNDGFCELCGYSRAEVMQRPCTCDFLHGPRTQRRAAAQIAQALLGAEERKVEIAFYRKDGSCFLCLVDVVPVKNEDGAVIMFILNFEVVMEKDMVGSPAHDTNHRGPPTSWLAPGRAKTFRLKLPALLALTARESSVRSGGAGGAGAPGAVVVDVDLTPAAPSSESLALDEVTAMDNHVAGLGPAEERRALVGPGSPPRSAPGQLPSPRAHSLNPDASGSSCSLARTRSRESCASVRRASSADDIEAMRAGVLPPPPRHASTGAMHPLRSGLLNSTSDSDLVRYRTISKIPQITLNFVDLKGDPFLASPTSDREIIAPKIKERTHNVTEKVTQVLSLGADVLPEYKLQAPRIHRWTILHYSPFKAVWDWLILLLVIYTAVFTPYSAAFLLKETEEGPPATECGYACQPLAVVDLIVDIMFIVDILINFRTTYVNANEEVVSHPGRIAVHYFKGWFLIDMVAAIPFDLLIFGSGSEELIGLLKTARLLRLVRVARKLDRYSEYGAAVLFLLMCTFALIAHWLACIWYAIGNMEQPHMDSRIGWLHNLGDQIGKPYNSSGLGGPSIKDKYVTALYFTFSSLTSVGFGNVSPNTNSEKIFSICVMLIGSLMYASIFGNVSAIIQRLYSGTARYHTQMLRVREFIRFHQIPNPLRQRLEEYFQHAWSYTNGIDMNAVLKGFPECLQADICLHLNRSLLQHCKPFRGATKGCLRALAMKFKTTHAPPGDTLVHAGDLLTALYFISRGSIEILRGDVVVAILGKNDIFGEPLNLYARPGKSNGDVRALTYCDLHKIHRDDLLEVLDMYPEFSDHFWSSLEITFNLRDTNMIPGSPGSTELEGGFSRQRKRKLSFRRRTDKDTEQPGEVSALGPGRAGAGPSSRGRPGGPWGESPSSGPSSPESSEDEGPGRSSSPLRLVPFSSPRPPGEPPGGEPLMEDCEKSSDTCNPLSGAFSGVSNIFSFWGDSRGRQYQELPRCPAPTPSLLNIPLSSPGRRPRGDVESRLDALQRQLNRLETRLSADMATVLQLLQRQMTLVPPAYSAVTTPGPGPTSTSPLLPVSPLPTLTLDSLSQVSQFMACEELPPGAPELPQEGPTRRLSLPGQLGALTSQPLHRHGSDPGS

HepG2 cells [3] = test: Cell stress panel (CSP), 24 h, 8 concentrations, BIFROST global PoD; format: cell-based; conditions: HepG2; cell stress panel PoD
Procedure: Compounds were tested using the previously developed cell stress panel ([Hatherell et al. 2020]) and the expanded biomarker panel outlined in Middleton et al. HepG2 cells were treated with all compounds for 24 h across 8 concentrations prior to biomarker analysis. The same plate layout and number of replicates (3 biological and 2 technical) were used as previously for each assay within the panel.

[4] = target: T1, Adenosine receptor A2a, ADORA2A (h) (Homo sapiens, UniProt P29274); test: IPP ADORA2A binding (agonist radioligand); conditions: IPP screening at 100 uM; control NECA
T1 construct: purchased Eurofins Cerep (SafetyScreen44-based IPP panel)
T1 sequence (P29274 whole entry): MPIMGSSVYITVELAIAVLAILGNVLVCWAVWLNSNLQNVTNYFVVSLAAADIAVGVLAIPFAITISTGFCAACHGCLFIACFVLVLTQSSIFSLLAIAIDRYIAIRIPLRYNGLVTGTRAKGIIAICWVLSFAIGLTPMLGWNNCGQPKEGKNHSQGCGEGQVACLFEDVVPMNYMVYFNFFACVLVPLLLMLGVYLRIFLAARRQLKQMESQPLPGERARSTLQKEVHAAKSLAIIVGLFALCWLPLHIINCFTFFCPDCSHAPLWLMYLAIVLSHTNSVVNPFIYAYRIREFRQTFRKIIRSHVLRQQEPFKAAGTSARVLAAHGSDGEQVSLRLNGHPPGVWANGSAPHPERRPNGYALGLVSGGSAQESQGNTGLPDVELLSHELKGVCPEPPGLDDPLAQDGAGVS

HepG2 cells [5] = test: High-throughput transcriptomics (HTTr, TempO-Seq), HepG2, 24 h; format: cell-based, human; conditions: HepG2; for pod_httr_bifrost PoD: HTTr BIFROST PoD; for podl_path_minbmd PoD: HTTr minimum pathway BMD(L)
Procedure: (§1) HepG2, HepaRG, and MCF7 cells were treated with each compound for 24 h across a dose range of 7 concentrations and lysed using TempO-Seq lysis buffer (BioSpyder Technologies, proprietary kit, see [Middleton et al. 2022] for method details). Sequencing was performed using TempO-Seq (BioClavis) version 2 of the human whole transcriptome panel and analyzed as described previously in Middleton et al.

MCF7 cells = test: High-throughput transcriptomics (HTTr, TempO-Seq), MCF7, 24 h; format: cell-based, human; conditions: MCF-7; for pod_httr_bifrost PoD: HTTr BIFROST PoD; for podl_path_minbmd PoD: HTTr minimum pathway BMD(L)
Procedure: as §1

[6] = test system: Thyroid hormone receptor alpha, THRA (h); test: IPP THRA coactivator recruitment (agonist); format: biochemical, human; conditions: 100 uM; agonist; T3; * denotes assay interference (2-Amino-6-chloro-4-nitrophenol, HC Red 3)
rat = conditions: cited from earlier work; for PoD (NOAEL): rat, ref ToxRefDB/Paul-Friedman et al. (2020)/regulatory opinions
HepaRG cells = test: High-throughput transcriptomics (HTTr, TempO-Seq), HepaRG, 24 h; format: cell-based, human; conditions: HepaRG; for pod_httr_bifrost PoD: HTTr BIFROST PoD; for podl_path_minbmd PoD: HTTr minimum pathway BMD(L)
Procedure: as §1

[7] = target: T2, Estrogen receptor, ER1 (h) (Homo sapiens, UniProt P03372); test: IPP ER1 coactivator recruitment (antagonist); format: biochemical; conditions: 100 uM, estriol, * denotes assay interference (2-Amino-6-chloro-4-nitrophenol, HC Red 3)
T2 construct: purchased Eurofins Cerep (SafetyScreen44-based IPP panel)
T2 sequence (P03372 1-595): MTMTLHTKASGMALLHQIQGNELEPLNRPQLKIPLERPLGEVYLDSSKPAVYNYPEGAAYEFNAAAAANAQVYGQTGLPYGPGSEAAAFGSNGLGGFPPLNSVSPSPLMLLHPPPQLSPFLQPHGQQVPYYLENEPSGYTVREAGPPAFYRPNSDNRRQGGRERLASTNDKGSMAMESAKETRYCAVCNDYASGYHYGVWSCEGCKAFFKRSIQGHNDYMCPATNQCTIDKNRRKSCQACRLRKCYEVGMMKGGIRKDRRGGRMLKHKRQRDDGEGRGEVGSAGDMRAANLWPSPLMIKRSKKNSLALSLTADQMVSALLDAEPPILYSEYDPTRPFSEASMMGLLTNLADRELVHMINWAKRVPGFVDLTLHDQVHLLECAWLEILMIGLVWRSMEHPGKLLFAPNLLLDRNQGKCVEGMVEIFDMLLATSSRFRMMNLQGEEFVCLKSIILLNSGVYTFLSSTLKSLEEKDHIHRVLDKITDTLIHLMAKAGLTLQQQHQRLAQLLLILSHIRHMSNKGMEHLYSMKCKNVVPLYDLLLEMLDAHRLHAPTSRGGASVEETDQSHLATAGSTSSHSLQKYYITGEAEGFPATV

[8] = test system: Gamma-aminobutyric acid receptor subunit alpha-1 BZD site, GABRA1A (r); format: binding, rat
[9] = target: T2, Estrogen receptor, ER1 (h); test: IPP ER1 coactivator recruitment (agonist); format: biochemical; conditions: 100 uM, estriol, * denotes assay interference (2-Amino-6-chloro-4-nitrophenol, HC Red 3)
[10] = test system: Potassium Voltage-Gated Channel Kv non-selective, KCNQ1 (r); test: IPP KCNQ1 binding (antagonist radioligand); set-up: species or system rat; conditions: IPP screening at 100 uM; control α-dendrotoxin
[11] = test system: Glutamate receptor ionotropic NMDA 1 non-selective, GRIN1 (r)
[12] = human
[13] = test system: 63 targets with known safety liabilities; test: In vitro pharmacological profiling (IPP) panel, screening at 10 or 100 µM and dose response, minimum IC50/AC50; format: biochemical; conditions: lowest AC50 across IPP panel (systemic targets); cell_type -; read-out: ipp_lowest_ac50_systemic PoD
[14] = PBK level L2; taken or scaled from references (median where several); ref [6],[7],[10],[19]; cited from earlier work
[15] = PBK level L2; single value or median; ref [2],[4],[6],[7],[8],[10],[11],[15],[18],[27],[34]; cited from earlier work
[16] = skin penetration (PBK input); conditions: PBK level L2, [28] (ibuprofen)
[17] = cited from earlier work
[18] = IPP screening at 100 uM, control diazepam
[19] = IPP screening at 100 uM, control CGS 19755
[20] = neurological effects, ref SCCS/1582/16
[21] = optimised based on [21] (glutaraldehyde), [23] (HCRed3)
[22] = IV bolus 391 mg, healthy 2 male 3 female, calibration, ref Pentikäinen et al. 1979
[23] = IV infusion 195 mg, 4 healthy male, validation, ref Tucker et al. 1981
[24] = Oral 391 mg (IR: Tablet), fasted, healthy 2 male 3 female, calibration, ref Pentikäinen et al. 1979
[25] = Oral 391 mg (IR: Tablet), fed, healthy 12 male 4 female, validation, ref Tucker et al. 1981

## CCCCCCC(O)CO (stereo not drawn) [1,2-Octanediol, Octane-1,2-diol]
[1]
  Specific binding: 26.3%
Tubulin (r)
  IPP screening %, Specific binding: 3.0%
[2]
  IPP screening %, Specific binding: 14.6%
HepG2 cells [3]
  pod_cell_stress PoD: 272.296 µM
[4]
  Specific binding: 1.4%
HepG2 cells [5]
  pod_httr_bifrost PoD: 108.846 µM
  podl_path_minbmd PoD: 1029.23 µM
MCF7 cells
  pod_httr_bifrost PoD: 48.9281 µM
  podl_path_minbmd PoD: 968.894 µM
[6]
  IPP screening %, Coactivator recruitment: 2.0%
rat; developmental
  PoD (NOAEL): 150 mg/kg bw/day
HepaRG cells
  pod_httr_bifrost PoD: 103.989 µM
  podl_path_minbmd PoD: 259.271 µM
[7]
  IPP screening %, Coactivator recruitment: 0.0%
[8]; [18]
  Specific binding: 10.0%
[9]
  IPP screening %, Coactivator recruitment: 0.0%
[10]
  Specific binding: -4.4%
[11]; [19]
  Specific binding: 3.1%
[12]
  risk: 0

## Cc1c(O)cccc1O [2-methyl-1,3-benzenediol, 2-Methylbenzene-1,3-diol]
[1]
  Specific binding: 41.6%
[13]
  AC50: 900 nM
Tubulin (r)
  IPP screening %, Specific binding: -14.0%
[2]
  IPP screening %, Specific binding: 3.3%
HepG2 cells [3]
  pod_cell_stress PoD: 8.64 µM
[4]
  Specific binding: 8.4%
HepG2 cells [5]
  pod_httr_bifrost PoD: 0.2182 µM
  podl_path_minbmd PoD: 169.35 µM
MCF7 cells
  pod_httr_bifrost PoD: 1.165 µM
  podl_path_minbmd PoD: 52.4925 µM
[6]
  IPP screening %, Coactivator recruitment: 2.0%
rat; 90-day study, body weight changes to rats, ref [3,4]
  NOAEL: 100 mg/kg bw/day
rat; 90 day oral rat study
  PoD (NOAEL): 100 mg/kg bw/day
rat; ref [3,4]
  NOAEL for teratogenicity and maternal toxicity: 400 mg/kg bw/day
HepaRG cells
  pod_httr_bifrost PoD: 22.9719 µM
  podl_path_minbmd PoD: 117.879 µM
[7]
  IPP screening %, Coactivator recruitment: -6.0%
[8]; [18]
  Specific binding: 6.5%
[9]
  IPP screening %, Coactivator recruitment: 13.0%
[10]
  Specific binding: 27.5%
[11]; [19]
  Specific binding: 1.8%
[12]
  risk: 0

## CCOc1cc(CCC(C)=O)ccc1O [Ethylzingerone, 4-(3-Ethoxy-4-hydroxyphenyl)butan-2-one]
[1]
  Specific binding: 8.8%
[13]
  AC50: 1390 nM
Tubulin (r)
  IPP screening %, Specific binding: 16.0%
[2]
  IPP screening %, Specific binding: 0.2%
HepG2 cells [3]
  pod_cell_stress PoD: 17.0917 µM
[4]
  Specific binding: 4.5%
HepG2 cells [5]
  pod_httr_bifrost PoD: 11.971 µM
  podl_path_minbmd PoD: 445.376 µM
MCF7 cells
  pod_httr_bifrost PoD: 11.821 µM
  podl_path_minbmd PoD: 119.724 µM
[6]
  IPP screening %, Coactivator recruitment: 4.0%
rat; 90 day oral rat study, ref SCCS/1582/16
  local NOAEL: 300 mkd
rat; [20]
  BMD: 220 mkd
  BMDL: 110 mkd
rat; 90 day oral rat study
  PoD (NOAEL): 100 mg/kg bw/day
HepaRG cells
  pod_httr_bifrost PoD: 29.321 µM
  podl_path_minbmd PoD: 291.446 µM
[7]
  IPP screening %, Coactivator recruitment: -14.0%
[8]; [18]
  Specific binding: -2.5%
[9]
  IPP screening %, Coactivator recruitment: 2.0%
[10]
  Specific binding: 0.7%
[11]; [19]
  Specific binding: -16.9%
[12]
  risk: 0

## Nc1ccc(NCCO)c([N+](=O)[O-])c1 [HCRed3]
[14]
  Intrinsic Liver Clearance: 248.1 L/h
[15]
  Fup: 62.28%
[16]; [21]
  Diffusivity Dermis: 1.00E-08 cm^2/s
  Diffusivity Stratum Corneum: 1.00E-08 cm^2/s
  Diffusivity Viable Epidermis: 1.00E-10 cm^2/s
[16]; optimised based on [21] (glutaraldehyde), [23] (HCRed3), no reference printed (DEET)
  Partition Coefficient Stratum Corneum/Water: 1.50
[16]; optimised based on [23] (HCRed3)
  Diffusivity Vehicle: 1.00E-05 cm^2/s

## CN(C)C(=N)N=C(N)N [Metformin, N,N-Dimethyltriimidodicarbonic diamide]
Tubulin (r)
  IPP screening %, Specific binding: 14.0%
HepG2 cells [3]
  pod_cell_stress PoD: 133.042 µM
[4]
  Specific binding: -1.4%
HepG2 cells [5]
  pod_httr_bifrost PoD: 107.11 µM
  podl_path_minbmd PoD: 592.816 µM
[17]; [22]
  Reported AUC0-t: 23529 ng·h/mL
  Reported cmax: 47.318 µg/mL
  Reported tmax: 4.2 min
[17]; [23]
  Reported AUC0-t: 8905.5 ng·h/mL
  Reported cmax: 8.93 µg/mL
  Reported tmax: 0 min
[17]; [24]
  Reported AUC0-t: 10696 ng·h/mL
  Reported cmax: 3.1615 µg/mL
  Reported tmax: 43.11 min
[17]; [25]
  Reported AUC0-t: 11234 ng·h/mL
  Reported cmax: 2 µg/mL
  Reported tmax: 104 min
MCF7 cells
  pod_httr_bifrost PoD: 45.2765 µM
  podl_path_minbmd PoD: 722.808 µM
[6]
  IPP screening %, Coactivator recruitment: 4.0%
HepaRG cells
  pod_httr_bifrost PoD: 80.527 µM
  podl_path_minbmd PoD: 386.965 µM
[8]
  Specific binding: 0.6%
[11]
  Specific binding: -9.9%
[12]
  risk: 1
